Target: T1, human S1P1 receptors (Homo sapiens, UniProt P21453)
T1 construct: host or cells: HEK293
Assay: S1P1R antagonist assay (fluorescent membrane potential dye, cAMP readout)
Type: cell-based
Settings: HEK293 cells expressing human S1P1 receptors and CNG channel; 500 nM NECA; S1P1R agonist 10 nM; 90 minutes; read-out: EC50 or IC50 value

T1 sequence (P21453 whole entry): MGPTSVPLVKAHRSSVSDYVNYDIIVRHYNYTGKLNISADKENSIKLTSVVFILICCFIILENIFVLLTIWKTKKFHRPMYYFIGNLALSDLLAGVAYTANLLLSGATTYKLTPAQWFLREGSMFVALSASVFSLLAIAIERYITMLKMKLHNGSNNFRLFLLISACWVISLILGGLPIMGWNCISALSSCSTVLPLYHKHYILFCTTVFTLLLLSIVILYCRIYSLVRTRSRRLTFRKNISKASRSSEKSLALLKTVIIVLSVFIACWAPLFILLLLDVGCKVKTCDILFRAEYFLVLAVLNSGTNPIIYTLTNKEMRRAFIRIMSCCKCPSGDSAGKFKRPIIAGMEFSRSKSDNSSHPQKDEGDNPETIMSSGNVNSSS

IC50 [nM] | Compound
> 1000 | O=C(NC(COCc1ccccc1)C(=O)Nc1ccc(Oc2ccccc2)cc1)c1ccccc1Cl (stereo not shown) [Compound 274, 2-chloro-N-(2-oxo-1-{[(phenylmethyl)oxy]methyl}-2-{[4-(phenyloxy)phenyl]amino}ethyl)benzamide]
> 1000 | O=C(NC(COCc1ccccc1)C(=O)Nc1ccc(Oc2ccccc2)cc1)c1cccc(Cl)c1 (stereo not shown) [Compound 275, 3-chloro-N-(2-oxo-1-{[(phenylmethyl)oxy]methyl}-2-{[4-(phenyloxy)phenyl]amino}ethyl)benzamide]
> 1000 | O=C(NC(COCc1ccccc1)C(=O)Nc1ccc(Oc2ccccc2)cc1)c1ccc(Cl)cc1 (stereo not shown) [Compound 276, 4-chloro-N-(2-oxo-1-{[(phenylmethyl)oxy]methyl}-2-{[4-(phenyloxy)phenyl]amino}ethyl)benzamide]
≤ 300 | O=C(NC(COCc1ccccc1)C(=O)Nc1ccc(Oc2ccccc2)cc1)C1CC1 (stereo not shown) [Compound 277, N-(2-oxo-1-{[(phenylmethyl)oxy]methyl}-2-{[4-(phenyloxy)phenyl]amino}ethyl)cyclopropylamide]
> 1000 | O=C(CCC1CCCC1)NC(COCc1ccccc1)C(=O)Nc1ccc(Oc2ccccc2)cc1 (stereo not shown) [Compound 278, N-(2-oxo-1-{[(phenylmethyl)oxy]methyl}-2-{[4-(phenyloxy)phenyl]amino}ethyl)-3-cyclopentylpropanamide]
> 1000 | Cc1ccc(C(=O)NC(COCc2ccccc2)C(=O)Nc2ccc(Oc3ccccc3)cc2)cc1C (stereo not shown) [Compound 279, 3,4-dimethyl-N-(2-oxo-1-{[(phenylmethyl)oxy]methyl}-2-{[4-(phenyloxy)phenyl]amino}ethyl)benzamide]
> 1000 | COc1ccc(OC)c(CC(=O)NC(COCc2ccccc2)C(=O)Nc2ccc(Oc3ccccc3)cc2)c1 (stereo not shown) [Compound 280, N-(2-oxo-1-{[(phenylmethyl)oxy]methyl}-2-{[4-(phenyloxy)phenyl]amino}ethyl)-2,5-dimethoxyphenylacetamide]
> 1000 | CCOc1ccc(C(=O)NC(COCc2ccccc2)C(=O)Nc2ccc(Oc3ccccc3)cc2)cc1 (stereo not shown) [Compound 281, 4-(ethyloxy)-N-(2-oxo-1-{[(phenylmethyl)oxy]methyl}-2-{[4-(phenyloxy)phenyl]amino}ethyl)benzamide]
> 1000 | CCCCC(CC)C(=O)NC(COCc1ccccc1)C(=O)Nc1ccc(Oc2ccccc2)cc1 (stereo not shown) [Compound 282, N-(3-(benzyloxy)-1-oxo-1-(4-phenoxyphenylamino)propan-2-yl)-2-ethylhexanamide]
> 1000 | O=C(NC(COCc1ccccc1)C(=O)Nc1ccc(Oc2ccccc2)cc1)c1ccco1 (stereo not shown) [Compound 283, N-(2-oxo-1-{[(phenylmethyl)oxy]methyl}-2-{[4-(phenyloxy)phenyl]amino}ethyl)furan-2-carboxamide]
> 1000 | COCC(=O)NC(COCc1ccccc1)C(=O)Nc1ccc(Oc2ccccc2)cc1 (stereo not shown) [Compound 284, N-(2-oxo-1-{[(phenylmethyl)oxy]methyl}-2-{[4-(phenyloxy)phenyl]amino}ethyl)-2-methoxyacetamide]
> 1000 | COc1cccc(CC(=O)NC(COCc2ccccc2)C(=O)Nc2ccc(Oc3ccccc3)cc2)c1 (stereo not shown) [Compound 285, N-(2-oxo-1-{[(phenylmethyl)oxy]methyl}-2-{[4-(phenyloxy)phenyl]amino}ethyl)-3-methoxyphenylacetamide]
> 1000 | CCCC(C)C(=O)NC(COCc1ccccc1)C(=O)Nc1ccc(Oc2ccccc2)cc1 (stereo not shown) [Compound 286, 2-methyl-N-(2-oxo-1-{[(phenylmethyl)oxy]methyl}-2-{[4-(phenyloxy)phenyl]amino}ethyl)pentanamide]
> 1000 | CC(C)CCC(=O)NC(COCc1ccccc1)C(=O)Nc1ccc(Oc2ccccc2)cc1 (stereo not shown) [Compound 287, 4-methyl-N-(2-oxo-1-{[(phenylmethyl)oxy]methyl}-2-{[4-(phenyloxy)phenyl]amino}ethyl)pentanamide]
> 1000 | O=C(NC(COCc1ccccc1)C(=O)Nc1ccc(Oc2ccccc2)cc1)c1ccc2ccccc2c1 (stereo not shown) [Compound 288, N-(2-oxo-1-{[(phenylmethyl)oxy]methyl}-2-{[4-(phenyloxy)phenyl]amino}ethyl)naphthalene-2-carboxamide]
> 1000 | O=C(COc1ccccc1)NC(COCc1ccccc1)C(=O)Nc1ccc(Oc2ccccc2)cc1 (stereo not shown) [Compound 289, N-(2-oxo-1-{[(phenylmethyl)oxy]methyl}-2-{[4-(phenyloxy)phenyl]amino}ethyl)phenoxyacetamide]
> 1000 | O=C(NC(COCc1ccccc1)C(=O)Nc1ccc(Oc2ccccc2)cc1)c1cccnc1Oc1ccccc1 (stereo not shown) [Compound 290, N-(2-oxo-1-{[(phenylmethyl)oxy]methyl}-2-{[4-(phenyloxy)phenyl]amino}ethyl)-2-(phenyloxy)pyridine-3-carboxamide]
> 1000 | COc1cc(C(=O)NC(COCc2ccccc2)C(=O)Nc2ccc(Oc3ccccc3)cc2)cc(OC)c1OC (stereo not shown) [Compound 291, 3,4,5-tris(methyloxy)-N-(2-oxo-1-{[(phenylmethyl)oxy]methyl}-2-{[4-(phenyloxy)phenyl]amino}ethyl)benzamide]

Second part, the compound before the results:

Compound | IC50 [nM]
Cc1n[nH]c(C)c1CC(=O)N[C@@H](COCc1ccc(F)cc1)C(=O)Nc1ccc(Oc2ccc(F)cc2)cc1 [Compound 258, (S)-2-(2-(3,5-dimethyl-1H-pyrazol-4-yl)acetamido)-3-(4-fluorobenzyloxy)-N-(4-(4-fluorophenoxy)phenyl)propanamide] | ≤ 300
O=C(Nc1ccc(Oc2ccc(F)cc2)cc1)[C@@H]1C[C@@H](Oc2ccccc2)CN1C(=O)Cn1cncn1 [Compound 259, (2S,4R)-1-(2-(1H-1,2,4-triazol-1-yl)acetyl)-N-(4-(4-fluorophenoxy)phenyl)-4-phenoxypyrrolidine-2-carboxamide] | 300 to 1000
O=C(Nc1ccc(Oc2ccc(F)cc2)cc1)[C@@H]1C[C@@H](N2Cc3ccccc3C2)CN1C(=O)Cn1cncn1 [Compound 260, (2S,4R)-1-(2-(1H-1,2,4-triazol-1-yl)acetyl)-N-(4-(4-fluorophenoxy)phenyl)-4-(isoindolin-2-yl)pyrrolidine-2-carboxamide] | 300 to 1000
O=C(Nc1ccc(Oc2ccc(F)cc2)cc1)[C@@H]1CN(Cc2ccccc2)CCN1C(=O)Cn1cncn1 [Compound 261, (S)-1-(2-(1H-1,2,4-triazol-1-yl)acetyl)-4-benzyl-N-(4-(4-fluorophenoxy)phenyl)piperazine-2-carboxamide] | 300 to 1000
O=C(Nc1ccc(Oc2ccc(F)cc2)cc1)[C@@H]1C[C@@H](CNCc2ccccc2)CN1C(=O)Cn1cncn1 [Compound 262, (2S,4S)-1-(2-(1H-1,2,4-triazol-1-yl)acetyl)-4-((benzylamino)methyl)-N-(4-(4-fluorophenoxy)phenyl)pyrrolidine-2-carboxamide] | 300 to 1000
O=C(Nc1ccc(Oc2ccc(F)cc2)cc1)[C@@H]1C[C@@H](Cc2cccc(Cl)c2)CN1C(=O)Cn1ccnn1 [Compound 263, (2S,4R)-1-(2-(1H-1,2,3-triazol-1-yl)acetyl)-4-(3-chlorobenzyl)-N-(4-(4-fluorophenoxy)phenyl)pyrrolidine-2-carboxamide] | ≤ 300
O=C(Nc1ccc(Oc2ccc(F)cc2)cc1)[C@@H]1C[C@@H](Cc2ccccc2F)CN1C(=O)Cn1ccnn1 [Compound 264, (2S,4R)-1-(2-(1H-1,2,3-triazol-1-yl)acetyl)-4-(2-fluorobenzyl)-N-(4-(4-fluorophenoxy)phenyl)pyrrolidine-2-carboxamide] | ≤ 300
CC1CN(CC(=O)N[C@@H](COCc2ccccc2)C(=O)Nc2ccc(Oc3ccc(F)cc3)cc2)CC(C)O1 (stereo partly drawn) [Compound 265, (2S)-3-(benzyloxy)-2-(2-(2,6-dimethylmorpholino)acetamido)-N-(4-(4-fluorophenoxy)phenyl)propanamide] | ≤ 300
O=C(CN1CCSCC1)N[C@@H](COCc1ccccc1)C(=O)Nc1ccc(Oc2ccc(F)cc2)cc1 [Compound 266, (S)-3-(benzyloxy)-N-(4-(4-fluorophenoxy)phenyl)-2-(2-thiomorpholinoacetamido)propanamide] | 300 to 1000
O=C(Nc1ccc(Oc2ccc(F)cc2)cc1)[C@@H]1C[C@@H](Cc2ccc(F)cc2F)CN1C(=O)Cn1ccnn1 [Compound 267, (2S,4R)-1-(2-(1H-1,2,3-triazol-1-yl)acetyl)-4-(2,4-difluorobenzyl)-N-(4-(4-fluorophenoxy)phenyl)pyrrolidine-2-carboxamide] | ≤ 300
O=C(Nc1ccc(Oc2ccc(F)cc2)cc1)[C@@H]1C[C@@H](Cc2cccc(Cl)c2)CN1C(=O)Cn1nccn1 [Compound 268, (2S,4R)-1-(2-(2H-1,2,3-triazol-2-yl)acetyl)-4-(3-chlorobenzyl)-N-(4-(4-fluorophenoxy)phenyl)pyrrolidine-2-carboxamide] | ≤ 300
CC(=O)NC(COCc1ccccc1)C(=O)Nc1ccc(Oc2ccccc2)cc1 (stereo not shown) [Compound 269, N-(2-oxo-1-{[(phenylmethyl)oxy]methyl}-2-{[4-(phenyloxy)phenyl]amino}ethyl)acetamide] | 300 to 1000
COc1ccc(C(=O)NC(COCc2ccccc2)C(=O)Nc2ccc(Oc3ccccc3)cc2)cc1 (stereo not shown) [Compound 270, 4-(methyloxy)-N-(2-oxo-1-{[(phenylmethyl)oxy]methyl}-2-{[4-(phenyloxy)phenyl]amino}ethyl)benzamide] | > 1000
O=C(Cc1ccc(OCc2ccccc2)cc1)NC(COCc1ccccc1)C(=O)Nc1ccc(Oc2ccccc2)cc1 (stereo not shown) [Compound 271, 4-benzyloxy-N-(2-oxo-1-{[(phenylmethyl)oxy]methyl}-2-{[4-(phenyloxy)phenyl]amino}ethyl)phenylacetamide] | > 1000
COc1ccc(Br)c(C(=O)NC(COCc2ccccc2)C(=O)Nc2ccc(Oc3ccccc3)cc2)c1 (stereo not shown) [Compound 272, 2-bromo-5-(methyloxy)-N-(2-oxo-1-{[(phenylmethyl)oxy]methyl}-2-{[4-(phenyloxy)phenyl]amino}ethyl)benzamide] | > 1000
CCCC(=O)NC(COCc1ccccc1)C(=O)Nc1ccc(Oc2ccccc2)cc1 (stereo not shown) [Compound 273, N-(2-oxo-1-{[(phenylmethyl)oxy]methyl}-2-{[4-(phenyloxy)phenyl]amino}ethyl)butanamide] | > 1000
